# In patent publication EP0617001B1, “Phenoxyphenylacetic acid derivatives” (Merck & Co., Inc., priority 1993, dated 1994):
# Structures can show the parent of a compound that is named as a salt.
# Key:
# Anesthetized Male Dog [1] = experiment: ET-1 induced changes in diastolic blood pressure (DBP) and intra-urethral pressure (IUP) in the anesthetized male dog; type: in vivo, mongrel dog; settings: for % INHIBITION of ET-1 induced change in DBP, DEPRESSOR / % INHIBITION of ET-1 induced change in DBP, PRESSOR / % INHIBITION of ET-1 induced change in IUP, PRESSOR: 30 mg/kg intra-venous
# Method: Methodology for determining whether an ET-1 selective antagonist could inhibit the ET-1 mediated prostatic urethral contractions in a mongrel dog model:
# (§1) On separate days, two fasted male mongrel dogs (HRP, Inc.) weighing 11.0 and 12.4 kg, were anesthetized with Sodium Pentobarbital (Steris Laboratories, Inc.) at 35 mg/kg (i.v.) to effect, followed by 4 mg/kg/hr (i.v.) infusion. A cuffed endotracheal tube was inserted and each animal was ventilated with room air using a positive displacement large animal ventilator (Harvard Apparatus) at a rate of 18 breaths/minute and an average tidal volume of 18 ml/kg body weight. Body temperature was maintained with a heating pad and heat lamp using a temperature controller (YSI) and esophageal probe. Two catheters (PE 260) were placed in the aorta via the femoral arteries (one in each artery) for administration of endothelin or phenylephrine and for continuous direct monitoring of blood pressure and heart rate using a Statham blood pressure transducer (Spectramed) and a computer system (Modular Instruments, Inc.). Two other catheters (PE 260) were placed in the vena cava via the femoral veins (one catheter in each vein) for administration of pentobarbital and N-(4-iso-propylbenzenesulfonyl)-α-(4-carboxy-2-n-propylphenoxy)-3,4-methylenedioxyphenylacetamide dipotassium salt [Example 42]. A supra-pubic incision approximately one-half inch lateral to the penis was made to expose the ureters, urinary bladder, prostate, and urethra. The dome of the bladder was retracted to facilitate dissection of the ureters. The ureters were cannulated with PE 90 and tied off to the bladder. Umbilical tape was passed beneath the urethra at the bladder neck and another piece of tape was placed approximately 1-2 cm. distal to the prostate. The bladder dome was incised and a Micro-tip® catheter transducer (Millar Instruments, Inc.) was advanced into the urethra. The neck of the bladder was ligated with the umbilical tape to hold the transducer. The bladder incision was sutured wit 3-0 silk (purse string suture). The transducer was withdrawn until it was positioned in the prostatic urethra. The position of the Micro-tip® catheter was verified by gently squeezing the prostate and noting the large change in urethral pressure prior to ligating the distal urethra.
# (§2) Phenylephrine (PB) (10 µg/kg, intra-arterial) was administered and pressor effects on diastolic blood pressure (DBP) and intra-urethral pressure (IUP) were noted. When blood pressure returned to baseline, endothelin-1 (ET-1) (1 nmole/kg, intra-arterial) was administered. Changes in DBP and IUP were monitored for one hour and an ET-1 selective endothelin antagonist, such as the compound of Example 42, N-(4-iso-propylbenzene-sulfonyl)-α-(4-carboxy-2-n-propylphenoxy)-3,4-methylenedioxyphenyl-acetamide dipotassium salt (30 mg/kg, intra-venous) was administered. Ten to fifteen minutes later when blood pressure had stabilized, ET-1 was administered again, and inhibition of ET-1 induced effects were noted. PE was administered at the end of the experiment to verify specificity for ET-1 blockade. The dogs were euthanized with an overdose of pentobarbital followed by saturated KCl.
# (§3) All drugs were dissolved in isotonic saline solution.
# Anesthetized Male Dog [2] = experiment: Phenylephrine (PE)-induced changes in DBP and IUP in the anesthetized male dog (specificity for ET-1 blockade); type: in vivo, mongrel dog
# Method: as §1, with “Two other catheters (PE 260) were placed in the vena cava via the femoral veins (one catheter in each vein) for administration of pentobarbital and N-(4-iso-propylbenzenesulfonyl)-α-(4-carboxy-2-n-propylphenoxy)-3,4-methylenedioxyphenylacetamide dipotassium salt [Example 42].” left out
# as §2, with “Changes in DBP and IUP were monitored for one hour and an ET-1 selective endothelin antagonist, such as the compound of Example 42, N-(4-iso-propylbenzene-sulfonyl)-α-(4-carboxy-2-n-propylphenoxy)-3,4-methylenedioxyphenyl-acetamide dipotassium salt (30 mg/kg, intra-venous) was administered.” left out
# as §3
# rat prostate = experiment: In situ rat prostate: ET-1 induced contraction; type: in vivo, Sprague-Dawley rats; settings: antagonist injected IA
# Method: Male Sprague-Dawley rats (Taconic Farms) weighing 300-400 grams were anesthetized with urethane (1.75 g/kg, ip), a tracheal cannula was inserted, and the femoral artery was cannulated. Core body temperature was maintained at 37 + 0.5 °C. A 4-5 cm midline abdominal incision was made to expose the bladder and prostate. The prostate was separated from the bladder and surrounding capsule by blunt dissection with a forcep. A length of surgical silk was gently secured around the anterior tips of the prostate lobes. A second length of surgical silk attached to an atraumatic needle was passed through and tied to the base of the prostate approximately 10-12 mm posterior to the first tie. The posterior ligature was secured to an anchor post whereas the anterior ligature was connected to a Grass FT03 transducer (Grass Instruments, Quincy, MA) and maintained at a tension of 1 g. Signals from the transducer were amplified and recorded on a polygraph (Hewlett-Packard 8805B amplifiers and 7758A recorder, Palo Alto, CA). After equilibrating for approximately 15 min, the rats were administered pretreatment drugs (atropine 1 mg/kg, (+) propranolol 1 mg/kg) 10 min apart through the intra-arterial (IA) cannula. […] The response of the prostate to FT-1 was quantified by measuring the change (Δ) from baseline tension to the peak of the response during the 5-minute period after the third FT-1 injection.
# [3] = ET-1 (i.a.) alone, 1 nmole/kg, MEAN, n=2 dogs
# [4] = ET-1 (i.a.) alone, 1 nmole/kg, dog HG FMHK
# [5] = ET-1 (i.a.) alone, 1 nmole/kg, dog HG FMJC
# [6] = Phenylephrine alone, 10 µg/kg intra-arterial, dog HG FMJC
# [7] = 30 mg/kg intra-venous, dog HG FMJC
# [8] = ET-1 challenge after antagonist 30 mg/kg intra-venous, MEAN, n=2 dogs
# [9] = ET-1 challenge after antagonist 30 mg/kg intra-venous, dog HG FMHK
# [10] = ET-1 challenge after antagonist 30 mg/kg intra-venous, dog HG FMJC
compound,measurement,setting,value
Endothelin-1 [ET-1],CHANGE IN DBP (mmHg) DEPRESSOR,Anesthetized Male Dog [1]; [3],-13 mmHg
same,CHANGE IN DBP (mmHg) PRESSOR,Anesthetized Male Dog [1]; [3],26 mmHg
same,CHANGE IN IUP (mmHg) PRESSOR,Anesthetized Male Dog [1]; [3],15 mmHg
same,CHANGE IN DBP (mmHg) DEPRESSOR,Anesthetized Male Dog [1]; [4],-15 mmHg
same,CHANGE IN DBP (mmHg) PRESSOR,Anesthetized Male Dog [1]; [4],33 mmHg
same,CHANGE IN IUP (mmHg) PRESSOR,Anesthetized Male Dog [1]; [4],11 mmHg
same,CHANGE IN DBP (mmHg) DEPRESSOR,Anesthetized Male Dog [1]; [5],-10 mmHg
same,CHANGE IN DBP (mmHg) PRESSOR,Anesthetized Male Dog [1]; [5],19 mmHg
same,CHANGE IN IUP (mmHg) PRESSOR,Anesthetized Male Dog [1]; [5],18 mmHg
same,decrease in DBP,"Anesthetized Male Dog [1]; ET-1 alone, 1 nmole/kg intra-arterial, average of both dogs",13 mmHg
"CNC[C@H](O)c1cccc(O)c1 [Phenylephrine, reference compound]",INCREASE IN DBP (mmHg),Anesthetized Male Dog [2]; [6],17 mmHg
same,INCREASE IN IUP (mmHg),Anesthetized Male Dog [2]; [6],31 mmHg
"CCCc1cc(C(=O)O)ccc1OC(C(=O)NS(=O)(=O)c1ccc(C(C)C)cc1)c1ccc2c(c1)OCO2 (stereo not drawn) [Example 42, N-(4-iso-propylbenzenesulfonyl)-α-(4-carboxy-2-n-propylphenoxy)-3,4-methylenedioxyphenylacetamide dipotassium salt]","% Inhibition of Control, PE-induced INCREASE IN DBP",Anesthetized Male Dog [2]; [7],35%
same,"% Inhibition of Control, PE-induced INCREASE IN IUP",Anesthetized Male Dog [2]; [7],13%
same,Intra-arterial PE-induced increases in DBP and IUP after administration,Anesthetized Male Dog [2]; one dog studied,did not change significantly
same,"% INHIBITION of ET-1 induced change in DBP, DEPRESSOR","Anesthetized Male Dog [1]; MEAN, n=2 dogs",69%
same,"% INHIBITION of ET-1 induced change in DBP, PRESSOR","Anesthetized Male Dog [1]; MEAN, n=2 dogs",76%
same,"% INHIBITION of ET-1 induced change in IUP, PRESSOR","Anesthetized Male Dog [1]; MEAN, n=2 dogs",93%
same,"% INHIBITION of ET-1 induced change in DBP, DEPRESSOR",Anesthetized Male Dog [1]; dog HG FMHK,67%
same,"% INHIBITION of ET-1 induced change in DBP, PRESSOR",Anesthetized Male Dog [1]; dog HG FMHK,94%
same,"% INHIBITION of ET-1 induced change in IUP, PRESSOR",Anesthetized Male Dog [1]; dog HG FMHK,91%
same,"% INHIBITION of ET-1 induced change in DBP, DEPRESSOR",Anesthetized Male Dog [1]; dog HG FMJC,70%
same,"% INHIBITION of ET-1 induced change in DBP, PRESSOR",Anesthetized Male Dog [1]; dog HG FMJC,58%
same,"% INHIBITION of ET-1 induced change in IUP, PRESSOR",Anesthetized Male Dog [1]; dog HG FMJC,94%
same,CHANGE IN DBP (mmHg) DEPRESSOR,Anesthetized Male Dog [1]; [8],-4 mmHg
same,CHANGE IN DBP (mmHg) PRESSOR,Anesthetized Male Dog [1]; [8],5 mmHg
same,CHANGE IN IUP (mmHg) PRESSOR,Anesthetized Male Dog [1]; [8],1 mmHg
same,CHANGE IN DBP (mmHg) DEPRESSOR,Anesthetized Male Dog [1]; [9],-5 mmHg
same,CHANGE IN DBP (mmHg) PRESSOR,Anesthetized Male Dog [1]; [9],2 mmHg
same,CHANGE IN IUP (mmHg) PRESSOR,Anesthetized Male Dog [1]; [9],1 mmHg
same,CHANGE IN DBP (mmHg) DEPRESSOR,Anesthetized Male Dog [1]; [10],-3 mmHg
same,CHANGE IN DBP (mmHg) PRESSOR,Anesthetized Male Dog [1]; [10],8 mmHg
same,CHANGE IN IUP (mmHg) PRESSOR,Anesthetized Male Dog [1]; [10],1 mmHg
same,hemodynamic and prostatic urethral responses to ET-1,Anesthetized Male Dog [1]; anesthetized dogs,specifically inhibited
same,inhibition of ET-1 to contract the prostate,rat prostate,specific inhibition
